# In patent US9956179B2, “Process and apparatuses for preparing nanoparticle compositions with amphiphilic copolymers and their use” (The Trustees of Princeton University, priority 2001, dated 2018):
# Assay: Particle size distribution by Malvern Mastersizer S (volume basis)
# Format: physicochemical
# Details: first analysis after formation, diluted with water
# Procedure: For the examples containing a substantial fraction of nanoparticles <100 nm in diameter, photon correlation spectroscopy was performed on a Brookhaven with an ALV5000 multiple tau correlator to determine the average particle size using a second order cumulant fit. In accordance with standard practice, the viscosity and index of refraction of the solvent at a volume percentage the same as after mixing were input as properties of the fluid. A Malvern Mastersizer S version 2.18 was also used to determine the particle size distribution based on volume, or similar to a weight. Likewise, the average particle size was based on volume or mass, D[4,3]. The data analysis used a polydisperse model and the Standard-Wet (3OHD) presentation that assumes the particle is suspended in water. Some samples were diluted with water for analysis. For all processing conditions, the water used was purified by RO and filtered and the temperature is given within 2° C. The polymer blocks were nominal molecular weight with the nomenclature (1000) describing a block nominally of 1000 g/mole. The blocks could have contained minor impurities (<10% by weight and typically <5% by weight) due to the method of synthesis.
smiles,measurement,value
CC1=C(/C=C/C(C)=C/C=C/C(C)=C/C=C/C=C(C)/C=C/C=C(C)/C=C/C2=C(C)CCCC2(C)C)C(C)(C)CCC1 [β-carotene],"Mean size D[4,3]",120 μm
same,Yield of nanoparticles below 1060 nm,9%
